Assay results as given in PubChem BioAssay AID248 (DTP/NCI, 2004).
“And” between values parts separate entries of the source, which are not always exact repeats. Equal values may be shown once. Toxic doses and inconclusive results are not listed. Rule as the data show it: active = T/C of 150% or more; inactive = T/C below 125%.

System: L1210 leukemia ip in BDF1 mice, survival T/C
Experiment: NCI In Vivo Anticancer Drug Screen. Data for tumor model L1210 Leukemia (intraperitoneal) in B6D2F1 (BDF1) mice
Settings: endpoint: mean survival time, higher = longer survival
How it was run: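 Transplantable tumor model; survival measured in treated vs vehicle control mice. Value = treated/control.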

[1] = dose: 100.0 mg/kg/injection, schedule: Q04DX003 (ip), vehicle: saline with Tween-80
[2] = dose: 200.0 mg/kg/injection, schedule: Q04DX003 (ip), vehicle: saline with Tween-80
[3] = dose: 400.0 mg/kg/injection, schedule: Q04DX003 (ip), vehicle: saline with Tween-80
[4] = dose: 50.0 mg/kg/injection, schedule: Q01DX009 (ip), vehicle: Klucel (hydroxypropylcellulose) (HPC)
[5] = dose: 100.0 mg/kg/injection, schedule: Q01DX009 (ip), vehicle: Klucel (hydroxypropylcellulose) (HPC)
[6] = dose: 200.0 mg/kg/injection, schedule: Q01DX009 (ip), vehicle: Klucel (hydroxypropylcellulose) (HPC)
[7] = dose: 400.0 mg/kg/injection, schedule: Q01DX009 (ip), vehicle: Klucel (hydroxypropylcellulose) (HPC)
[8] = dose: 100.0 mg/kg/injection, schedule: Q04DX002 (ip), vehicle: Klucel (hydroxypropylcellulose) (HPC)
[9] = dose: 200.0 mg/kg/injection, schedule: Q04DX002 (ip), vehicle: Klucel (hydroxypropylcellulose) (HPC)
[10] = dose: 400.0 mg/kg/injection, schedule: Q04DX002 (ip), vehicle: Klucel (hydroxypropylcellulose) (HPC)
[11] = dose: 200.0 mg/kg/injection, schedule: Q04DX003 (ip), vehicle: saline

Measured: T/C

NS(=O)(=O)c1cc([N+](=O)[O-])ccc1Cl
inactive: [1] 108 % of control | [2] 111 % of control | [3] 95 % of control

CN=NNc1ccc(C)cc1
inactive: dose: 25.0 mg/kg/injection, schedule: Q01DX009 (ip), vehicle: Klucel (hydroxypropylcellulose) (HPC) 89 % of control | dose: 50.0 mg/kg/injection, schedule: Q01DX001 (ip), vehicle: saline 108 % of control | [4] 105 % of control and 117 % of control | dose: 100.0 mg/kg/injection, schedule: Q01DX001 (ip), vehicle: saline 108 % of control | [5] 102 % of control and 120 % of control | dose: 150.0 mg/kg/injection, schedule: Q01DX009 (ip), vehicle: Klucel (hydroxypropylcellulose) (HPC) 113 % of control | dose: 200.0 mg/kg/injection, schedule: Q01DX001 (ip), vehicle: saline 116 % of control | [6] 99 % of control and 91 % of control

O=C(CNC(=O)NCc1ccco1)N/N=C/c1ccc(Cl)c(Cl)c1
inactive: [4] 89 % of control | [5] 86 % of control and 88 % of control | [7] 90 % of control

O=C(Nc1ccc(C2=NCCN2)cc1)c1ccc(Br)c(C(=O)Nc2ccc(C3=NCCN3)cc2)c1
inactive: dose: 15.0 mg/kg/injection, schedule: Q01DX Z (ip), vehicle: saline 101 % of control | dose: 20.0 mg/kg/injection, schedule: Q01DX Z (ip), vehicle: water 102 % of control | dose: 30.0 mg/kg/injection, schedule: Q01DX Z (ip), vehicle: saline 117 % of control | dose: 30.0 mg/kg/injection, schedule: Q01DX Z (ip), vehicle: water 120 % of control

O=S(Cc1ccccc1)C(Cl)(Cl)c1ccccc1 (configuration not stated)
inactive: dose: 100.0 mg/kg/injection, schedule: Q01DX001 (ip), vehicle: other 96 % of control | dose: 200.0 mg/kg/injection, schedule: Q01DX001 (ip), vehicle: other 98 % of control | dose: 400.0 mg/kg/injection, schedule: Q01DX001 (ip), vehicle: other 102 % of control

CC(=O)Nc1cccc(C)c1C
inactive: [8] 107 % of control | [9] 100 % of control | [10] 103 % of control

O=C1NC(=O)C(c2ccccc2)(C2CCCC2)N1 (configuration not stated)
inactive: [4] 93 % of control | [5] 98 % of control | [6] 96 % of control

O=C1C=CC(=O)C2=C1C1c3ccccc3C2([N+](=O)[O-])c2ccccc21
inactive: [5] 100 % of control | dose: 100.0 mg/kg/injection, schedule: Q04DX003 (ip), vehicle: Klucel (hydroxypropylcellulose) (HPC) 105 % of control | [6] 92 % of control | dose: 200.0 mg/kg/injection, schedule: Q04DX003 (ip), vehicle: Klucel (hydroxypropylcellulose) (HPC) 97 % of control | [11] 97 % of control | [7] 100 % of control | dose: 400.0 mg/kg/injection, schedule: Q04DX003 (ip), vehicle: Klucel (hydroxypropylcellulose) (HPC) 102 % of control | dose: 400.0 mg/kg/injection, schedule: Q04DX003 (ip), vehicle: saline 102 % of control

CSc1nc(N)c2c(=O)c(C(N)=O)cn(C3OC(CO)C(O)C3O)c2n1 (configuration not stated)
inactive: dose: 100.0 mg/kg/injection, schedule: Q01DX005 (ip), vehicle: saline 95 % of control | dose: 200.0 mg/kg/injection, schedule: Q01DX005 (ip), vehicle: saline 93 % of control

CCOC(=O)c1cc(=O)c2cc(S(=O)(=O)F)ccc2[nH]1
inactive: [5] 95 % of control | [6] 97 % of control | [7] 97 % of control

CN1CCc2ccc(O)cc2C1
inactive: dose: 100.0 mg/kg/injection, schedule: Q04DX003 (ip), vehicle: saline 95 % of control | [11] 95 % of control

COC(=O)C(c1ccccc1)C(O)c1ccccc1 (configuration not stated)
inactive: dose: 55.0 mg/kg/injection, schedule: Q01DX Z (ip), vehicle: methylcellulose (MC) 113 % of control | dose: 83.0 mg/kg/injection, schedule: Q01DX Z (ip), vehicle: methylcellulose (MC) 94 % of control | dose: 125.0 mg/kg/injection, schedule: Q01DX Z (ip), vehicle: methylcellulose (MC) 93 % of control

c1ccc(-c2nnc(-c3ccc4ccc5cccnc5c4n3)nc2-c2ccccc2)cc1
inactive: [1] 93 % of control | [2] 104 % of control | [3] 104 % of control

C=CCc1ccc(OC(=O)Nc2ccccc2Cl)c(OC)c1
inactive: [8] 96 % of control | [9] 96 % of control | [10] 92 % of control

CCC1NC(C)(C)CC1=C(C)C (configuration not stated)
inactive: dose: 3.13 mg/kg/injection, schedule: Q01DX009 (ip), vehicle: saline 101 % of control | dose: 6.25 mg/kg/injection, schedule: Q01DX009 (ip), vehicle: saline 96 % of control | dose: 12.5 mg/kg/injection, schedule: Q01DX009 (ip), vehicle: saline 96 % of control

CCOCC(=O)Cc1ccccc1
inactive: dose: 50.0 mg/kg/injection, schedule: Q01DX009 (ip), vehicle: saline with Tween-80 95 % of control | dose: 100.0 mg/kg/injection, schedule: Q01DX009 (ip), vehicle: saline with Tween-80 100 % of control | dose: 200.0 mg/kg/injection, schedule: Q01DX009 (ip), vehicle: saline with Tween-80 92 % of control
